Reference: PMC11397024, “Strategic Fluorination to Achieve a Potent, Selective, Metabolically Stable, and Orally Bioavailable Inhibitor of CSNK2” (Molecules, 2024)

What was measured:
Test in all cases: NanoBRET K192
Assay type in all cases: cell-based
[1] = target: T1, LATS2 (Homo sapiens, UniProt Q9NRM7); conditions: HEK293
T1 construct: purchased Promega (NanoBRET Target Engagement K192 Kinase Selectivity System)
How it was run: (§1)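 HEK293 cells were transfected overnight with NanoLuc–kinase fusion vectors, then treated for 2 h at 37 °C with compound (added as 100 μM working solution) plus K10 tracer. BRET was read at 450/610 nm after substrate and extracellular inhibitor, and fractional occupancy was calculated against no-compound controls.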

[2] = target: T2, RPS6KA3 (Homo sapiens, UniProt P51812); conditions: HEK293
T2 construct: purchased Promega (NanoBRET Target Engagement K192 Kinase Selectivity System)
How it was run: as §1

[3] = target: T3, MAP4K1 (Homo sapiens, UniProt Q92918); conditions: HEK293
T3 construct: purchased Promega (NanoBRET Target Engagement K192 Kinase Selectivity System)
How it was run: as §1

[4] = target: T4, STK36 (Homo sapiens, UniProt Q9NRP7); conditions: HEK293
T4 construct: host or cells: HEK293
How it was run: as §1

[5] = target: T5, CDK16 + Y (Homo sapiens, UniProt Q00536); conditions: HEK293
T5 construct: purchased Promega (NanoBRET Target Engagement K192 Kinase Selectivity System)
How it was run: as §1

[6] = target: T6, CDKL5 (Homo sapiens, UniProt O76039); conditions: HEK293
T6 construct: purchased Promega (NanoBRET Target Engagement K192 Kinase Selectivity System)
How it was run: as §1

[7] = target: T7, MAP3K10 (Homo sapiens, UniProt Q02779); conditions: HEK293
T7 construct: host or cells: HEK293
How it was run: as §1

[8] = target: T8, MYLK3 (Homo sapiens, UniProt Q32MK0); conditions: HEK293
T8 construct: purchased Promega (NanoBRET Target Engagement K192 Kinase Selectivity System)
How it was run: as §1

[9] = target: T9, STK3 (Homo sapiens, UniProt Q13188); conditions: HEK293
T9 construct: purchased Promega (NanoBRET Target Engagement K192 Kinase Selectivity System)
How it was run: as §1

[10] = target: T10, ABL2 (Homo sapiens, UniProt P42684); conditions: HEK293
T10 construct: purchased Promega (NanoBRET Target Engagement K192 Kinase Selectivity System)
How it was run: as §1

[11] = target: T11, MAP4K2 (Homo sapiens, UniProt Q12851); conditions: HEK293
T11 construct: purchased Promega (NanoBRET Target Engagement K192 Kinase Selectivity System)
How it was run: as §1

[12] = target: T12, PTK2 (Homo sapiens, UniProt Q05397); conditions: HEK293
T12 construct: purchased Promega (NanoBRET Target Engagement K192 Kinase Selectivity System)
How it was run: as §1

[13] = target: T13, TLK2 (Homo sapiens, UniProt Q86UE8); conditions: HEK293
T13 construct: purchased Promega (NanoBRET Target Engagement K192 Kinase Selectivity System)
How it was run: as §1

[14] = target: T14, CDK18 + Y (Homo sapiens, UniProt Q07002); conditions: HEK293
T14 construct: purchased Promega (NanoBRET Target Engagement K192 Kinase Selectivity System)
How it was run: as §1

[15] = target: T15, MAST3 (Homo sapiens, UniProt O60307); conditions: HEK293
T15 construct: purchased Promega (NanoBRET Target Engagement K192 Kinase Selectivity System)
How it was run: as §1

[16] = target: T16, STK11 (Homo sapiens, UniProt Q15831); conditions: HEK293
T16 construct: purchased Promega (NanoBRET Target Engagement K192 Kinase Selectivity System)
How it was run: as §1

[17] = target: T17, PRKACB (Homo sapiens, UniProt P22694); conditions: HEK293
T17 construct: purchased Promega (NanoBRET Target Engagement K192 Kinase Selectivity System)
How it was run: as §1

[18] = target: T18, LTK (Homo sapiens, UniProt P29376); conditions: HEK293
T18 construct: purchased Promega (NanoBRET Target Engagement K192 Kinase Selectivity System)
How it was run: as §1

[19] = target: T19, IKBKE (Homo sapiens, UniProt Q14164); conditions: HEK293
T19 construct: purchased Promega (NanoBRET Target Engagement K192 Kinase Selectivity System)
How it was run: as §1

[20] = target: T20, CLK1 (Homo sapiens, UniProt P49759)
T20 construct: purchased Promega (NanoBRET Target Engagement K192 Kinase Selectivity System)
How it was run: as §1

[21] = target: T21, MAPK6 (Homo sapiens, UniProt Q16659); conditions: HEK293
T21 construct: purchased Promega (NanoBRET Target Engagement K192 Kinase Selectivity System)
How it was run: as §1

[22] = target: T22, PHKG1 (Homo sapiens, UniProt Q16816)
T22 construct: purchased Promega (NanoBRET Target Engagement K192 Kinase Selectivity System)
How it was run: as §1

[23] = target: T23, MELK (Homo sapiens, UniProt Q14680); conditions: HEK293
T23 construct: purchased Promega (NanoBRET Target Engagement K192 Kinase Selectivity System)
How it was run: as §1

[24] = target: T24, PRKAA2 (Homo sapiens, UniProt P54646); conditions: HEK293
T24 construct: purchased Promega (NanoBRET Target Engagement K192 Kinase Selectivity System)
How it was run: as §1

[25] = target: T25, STK32B (Homo sapiens, UniProt Q9NY57); conditions: HEK293
T25 construct: purchased Promega (NanoBRET Target Engagement K192 Kinase Selectivity System)
How it was run: as §1

[26] = target: T26, MAP3K21 (Homo sapiens, UniProt Q5TCX8); conditions: HEK293
T26 construct: purchased Promega (NanoBRET Target Engagement K192 Kinase Selectivity System)
How it was run: as §1

[27] = target: T27, EPHB4 (Homo sapiens, UniProt P54760); conditions: HEK293
T27 construct: purchased Promega (NanoBRET Target Engagement K192 Kinase Selectivity System)
How it was run: as §1

[28] = target: T28, STK35 (Homo sapiens, UniProt Q8TDR2); conditions: HEK293
T28 construct: purchased Promega (NanoBRET Target Engagement K192 Kinase Selectivity System)
How it was run: as §1

T20 sequence (P49759 whole entry): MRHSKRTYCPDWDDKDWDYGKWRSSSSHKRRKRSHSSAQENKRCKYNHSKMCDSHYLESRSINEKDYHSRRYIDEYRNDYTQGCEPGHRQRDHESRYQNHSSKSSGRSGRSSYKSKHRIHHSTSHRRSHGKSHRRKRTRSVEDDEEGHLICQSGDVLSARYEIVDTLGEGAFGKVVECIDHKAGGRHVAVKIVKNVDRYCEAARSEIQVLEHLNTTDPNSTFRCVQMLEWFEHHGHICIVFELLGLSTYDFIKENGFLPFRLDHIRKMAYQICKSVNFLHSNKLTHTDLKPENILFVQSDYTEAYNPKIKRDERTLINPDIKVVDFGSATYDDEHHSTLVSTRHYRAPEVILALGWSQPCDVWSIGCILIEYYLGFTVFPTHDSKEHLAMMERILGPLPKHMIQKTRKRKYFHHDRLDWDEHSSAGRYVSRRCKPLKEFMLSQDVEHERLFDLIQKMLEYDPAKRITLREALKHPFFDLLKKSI
T22 sequence (Q16816 whole entry): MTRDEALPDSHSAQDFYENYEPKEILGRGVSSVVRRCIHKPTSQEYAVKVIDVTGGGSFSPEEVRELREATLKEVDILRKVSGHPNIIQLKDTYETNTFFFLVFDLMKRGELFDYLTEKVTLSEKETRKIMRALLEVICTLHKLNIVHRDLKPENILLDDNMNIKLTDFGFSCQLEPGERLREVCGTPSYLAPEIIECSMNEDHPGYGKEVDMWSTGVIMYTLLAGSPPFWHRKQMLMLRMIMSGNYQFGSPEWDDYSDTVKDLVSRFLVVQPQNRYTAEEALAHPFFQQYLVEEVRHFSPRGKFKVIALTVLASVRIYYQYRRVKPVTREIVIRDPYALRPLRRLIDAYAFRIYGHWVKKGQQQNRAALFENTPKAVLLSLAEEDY
T14 sequence (Q07002 whole entry): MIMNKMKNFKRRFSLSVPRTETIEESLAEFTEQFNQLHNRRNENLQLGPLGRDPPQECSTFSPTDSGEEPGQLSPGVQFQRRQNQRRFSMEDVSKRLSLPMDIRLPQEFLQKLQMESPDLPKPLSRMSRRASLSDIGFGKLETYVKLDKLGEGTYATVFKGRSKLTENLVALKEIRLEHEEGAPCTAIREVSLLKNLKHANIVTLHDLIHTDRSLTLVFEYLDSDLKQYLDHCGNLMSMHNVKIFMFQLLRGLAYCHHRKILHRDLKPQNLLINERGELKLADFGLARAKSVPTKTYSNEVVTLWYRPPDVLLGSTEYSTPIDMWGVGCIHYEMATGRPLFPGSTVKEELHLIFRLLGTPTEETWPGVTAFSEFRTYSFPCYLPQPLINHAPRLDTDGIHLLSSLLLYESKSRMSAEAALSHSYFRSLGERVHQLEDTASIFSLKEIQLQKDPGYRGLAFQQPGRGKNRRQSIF
T14 sequence (Q8ND76 whole entry partner): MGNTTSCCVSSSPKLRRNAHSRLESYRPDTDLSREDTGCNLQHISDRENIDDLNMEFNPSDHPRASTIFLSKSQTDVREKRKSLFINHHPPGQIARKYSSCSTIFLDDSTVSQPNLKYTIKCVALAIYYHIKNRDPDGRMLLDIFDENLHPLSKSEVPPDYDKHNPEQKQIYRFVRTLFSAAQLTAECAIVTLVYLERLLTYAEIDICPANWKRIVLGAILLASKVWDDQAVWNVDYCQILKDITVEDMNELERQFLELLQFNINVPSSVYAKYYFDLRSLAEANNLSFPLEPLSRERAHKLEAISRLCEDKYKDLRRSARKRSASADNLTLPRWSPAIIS
T7 sequence (Q02779 whole entry): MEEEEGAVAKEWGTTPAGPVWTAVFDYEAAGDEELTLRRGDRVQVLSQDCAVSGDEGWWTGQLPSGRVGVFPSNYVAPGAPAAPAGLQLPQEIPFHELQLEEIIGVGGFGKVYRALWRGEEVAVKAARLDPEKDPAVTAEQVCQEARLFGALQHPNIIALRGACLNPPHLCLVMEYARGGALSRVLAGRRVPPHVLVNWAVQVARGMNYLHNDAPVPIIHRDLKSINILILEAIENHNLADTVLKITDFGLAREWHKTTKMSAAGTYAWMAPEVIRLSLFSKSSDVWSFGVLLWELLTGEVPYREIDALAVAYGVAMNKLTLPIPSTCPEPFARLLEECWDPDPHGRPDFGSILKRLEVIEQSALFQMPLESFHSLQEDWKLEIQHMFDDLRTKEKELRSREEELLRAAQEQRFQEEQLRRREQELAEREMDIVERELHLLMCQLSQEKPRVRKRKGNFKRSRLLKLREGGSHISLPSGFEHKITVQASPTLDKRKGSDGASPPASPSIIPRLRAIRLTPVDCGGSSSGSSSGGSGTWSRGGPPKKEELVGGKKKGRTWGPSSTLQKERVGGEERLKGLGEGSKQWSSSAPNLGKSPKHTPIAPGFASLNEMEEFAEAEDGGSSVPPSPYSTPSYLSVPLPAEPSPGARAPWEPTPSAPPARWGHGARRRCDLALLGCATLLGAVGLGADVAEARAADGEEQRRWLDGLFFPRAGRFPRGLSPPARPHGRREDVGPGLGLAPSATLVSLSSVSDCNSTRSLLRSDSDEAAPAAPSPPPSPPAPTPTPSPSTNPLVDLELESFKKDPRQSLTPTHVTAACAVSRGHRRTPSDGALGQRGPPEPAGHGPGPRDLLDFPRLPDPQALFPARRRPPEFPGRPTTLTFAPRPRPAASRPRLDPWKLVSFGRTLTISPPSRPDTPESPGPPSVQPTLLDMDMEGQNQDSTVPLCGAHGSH
T5 sequence (Q00536 whole entry): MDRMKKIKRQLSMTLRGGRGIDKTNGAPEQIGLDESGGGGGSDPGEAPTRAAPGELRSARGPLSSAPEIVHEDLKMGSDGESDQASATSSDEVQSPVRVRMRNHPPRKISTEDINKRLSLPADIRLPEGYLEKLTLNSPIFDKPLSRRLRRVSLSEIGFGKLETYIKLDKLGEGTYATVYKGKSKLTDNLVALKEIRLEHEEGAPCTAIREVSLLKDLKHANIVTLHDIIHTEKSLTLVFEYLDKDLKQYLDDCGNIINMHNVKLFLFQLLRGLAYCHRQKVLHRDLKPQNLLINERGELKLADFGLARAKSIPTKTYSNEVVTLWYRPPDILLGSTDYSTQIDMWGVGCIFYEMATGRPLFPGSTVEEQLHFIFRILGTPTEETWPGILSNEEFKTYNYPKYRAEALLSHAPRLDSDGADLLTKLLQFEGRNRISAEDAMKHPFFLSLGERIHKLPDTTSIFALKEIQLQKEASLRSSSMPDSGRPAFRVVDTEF
T5 sequence (Q8ND76 whole entry partner): as the sequence (Q8ND76 whole entry partner) above
T26 sequence (Q5TCX8 whole entry): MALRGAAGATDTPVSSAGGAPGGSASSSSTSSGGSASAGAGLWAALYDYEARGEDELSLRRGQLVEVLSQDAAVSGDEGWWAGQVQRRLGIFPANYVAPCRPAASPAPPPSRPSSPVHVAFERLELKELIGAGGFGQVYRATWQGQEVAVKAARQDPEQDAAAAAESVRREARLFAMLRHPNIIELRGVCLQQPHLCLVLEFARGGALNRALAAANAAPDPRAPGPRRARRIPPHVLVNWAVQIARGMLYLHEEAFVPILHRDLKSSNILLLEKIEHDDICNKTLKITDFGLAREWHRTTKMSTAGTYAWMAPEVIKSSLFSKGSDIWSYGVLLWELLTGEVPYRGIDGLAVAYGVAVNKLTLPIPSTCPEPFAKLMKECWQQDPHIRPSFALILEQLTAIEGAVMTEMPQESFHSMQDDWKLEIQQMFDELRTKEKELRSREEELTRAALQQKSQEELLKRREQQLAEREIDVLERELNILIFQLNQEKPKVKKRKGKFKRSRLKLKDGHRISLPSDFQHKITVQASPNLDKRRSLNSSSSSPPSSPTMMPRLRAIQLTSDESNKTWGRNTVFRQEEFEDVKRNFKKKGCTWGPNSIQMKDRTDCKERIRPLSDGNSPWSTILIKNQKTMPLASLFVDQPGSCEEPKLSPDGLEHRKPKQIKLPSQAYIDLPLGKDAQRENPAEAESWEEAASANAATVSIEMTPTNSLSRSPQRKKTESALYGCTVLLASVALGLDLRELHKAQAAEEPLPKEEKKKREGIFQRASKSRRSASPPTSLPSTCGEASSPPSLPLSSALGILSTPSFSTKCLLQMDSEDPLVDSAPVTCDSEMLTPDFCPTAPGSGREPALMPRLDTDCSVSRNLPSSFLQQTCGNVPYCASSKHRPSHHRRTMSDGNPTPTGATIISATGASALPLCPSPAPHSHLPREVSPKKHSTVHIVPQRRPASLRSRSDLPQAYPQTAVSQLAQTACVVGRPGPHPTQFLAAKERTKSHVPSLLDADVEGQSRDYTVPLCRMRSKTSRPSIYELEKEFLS
T28 sequence (Q8TDR2 whole entry): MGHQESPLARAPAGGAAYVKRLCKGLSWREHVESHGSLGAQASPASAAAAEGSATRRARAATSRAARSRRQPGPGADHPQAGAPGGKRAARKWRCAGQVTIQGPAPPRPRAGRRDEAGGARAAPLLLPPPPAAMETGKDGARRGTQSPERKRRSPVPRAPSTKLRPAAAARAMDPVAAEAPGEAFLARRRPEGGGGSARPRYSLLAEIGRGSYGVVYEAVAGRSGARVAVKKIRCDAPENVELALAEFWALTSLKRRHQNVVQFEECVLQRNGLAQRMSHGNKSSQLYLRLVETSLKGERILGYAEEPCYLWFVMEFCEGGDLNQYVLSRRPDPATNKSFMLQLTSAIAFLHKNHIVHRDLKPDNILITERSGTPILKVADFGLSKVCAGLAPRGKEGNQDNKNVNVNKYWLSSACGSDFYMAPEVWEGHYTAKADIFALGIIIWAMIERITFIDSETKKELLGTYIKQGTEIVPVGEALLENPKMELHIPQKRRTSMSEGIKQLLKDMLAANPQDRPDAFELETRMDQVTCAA

## CCC(=O)Nc1cc(Nc2cc(NC3CC3)n3ncc(C#N)c3n2)c(F)cc1N1CCC[C@H](NC)C1 [Compound 2, (S)-N-(5-((3-cyano-7-(cyclopropylamino)pyrazolo[1,5-a]pyrimidin-5-yl)amino)-4-fluoro-2-(3-(methylamino)piperidin-1-yl)phenyl)propionamide]
[1]
  receptor occupancy at 10 µM: 9.4%
[2]
  receptor occupancy at 10 µM: 1.8%
[3]
  receptor occupancy at 10 µM: 5.1%
[4]
  receptor occupancy at 10 µM: -7.6%
[5]
  receptor occupancy at 10 µM: 25.8%
[6]
  receptor occupancy at 10 µM: 17.2%
[7]
  receptor occupancy at 10 µM: -2.4%
[8]
  receptor occupancy at 10 µM: 0.4%
[9]
  receptor occupancy at 10 µM: 5.2%
[10]
  receptor occupancy at 10 µM: 9.4%
[11]
  receptor occupancy at 10 µM: 31.4%
[12]
  receptor occupancy at 10 µM: 15.7%
[13]
  receptor occupancy at 10 µM: 4.6%
[14]
  receptor occupancy at 10 µM: 17.5%
[15]
  receptor occupancy at 10 µM: -0.9%
[16]
  receptor occupancy at 10 µM: 0.1%
[17]
  receptor occupancy at 10 µM: 9.2%
[18]
  receptor occupancy at 10 µM: 4.2%
[19]
  receptor occupancy at 10 µM: 23.4%
[20]; CLK1, HEK293
  % occupancy at 10 μM: 76%
[20]; HEK293, CLK1
  receptor occupancy at 10 µM: 76.2%
[21]
  receptor occupancy at 10 µM: 14.6%
[22]; HEK293, PHKG1
  receptor occupancy at 10 µM: 55.3%
[22]; PHKG1, HEK293
  % occupancy at 10 μM: 55%
[23]
  receptor occupancy at 10 µM: 24.5%
[24]
  receptor occupancy at 10 µM: 0.5%
[25]
  receptor occupancy at 10 µM: 5.9%
[26]
  receptor occupancy at 10 µM: 4.8%
[27]
  receptor occupancy at 10 µM: 4.4%
[28]
  receptor occupancy at 10 µM: 6.5%
